Measured values as given in ChEMBL document CHEMBL4507291 (2021).

Experiments:
[1] = biological target: Serine/threonine-protein kinase Nek11 (Homo sapiens) (UniProt Q8NG66)
[2] = biological target: Serine/threonine-protein kinase 38 (Homo sapiens) (UniProt Q15208)
[3] = biological target: Cyclin-dependent kinase-like 3 (Homo sapiens) (UniProt Q8IVW4)
[4] = biological target: T1, Aurora kinase C (Homo sapiens) (UniProt Q9UQB9)
T1 sequence (whole entry): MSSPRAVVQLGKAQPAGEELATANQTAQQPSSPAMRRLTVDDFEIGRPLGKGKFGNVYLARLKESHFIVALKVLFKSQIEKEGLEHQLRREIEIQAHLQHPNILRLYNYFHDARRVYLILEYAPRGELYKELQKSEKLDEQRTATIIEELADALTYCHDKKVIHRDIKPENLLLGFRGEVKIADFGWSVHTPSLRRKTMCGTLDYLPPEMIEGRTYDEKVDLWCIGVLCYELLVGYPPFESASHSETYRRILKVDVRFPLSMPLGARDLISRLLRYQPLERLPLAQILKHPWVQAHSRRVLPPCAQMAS

[5] = biological target: Histamine H1 receptor (Homo sapiens) (UniProt P35367); settings: Compound concentration 10.0 uM
Sequence of Histamine H1 receptor (Homo sapiens) (P35367 whole entry): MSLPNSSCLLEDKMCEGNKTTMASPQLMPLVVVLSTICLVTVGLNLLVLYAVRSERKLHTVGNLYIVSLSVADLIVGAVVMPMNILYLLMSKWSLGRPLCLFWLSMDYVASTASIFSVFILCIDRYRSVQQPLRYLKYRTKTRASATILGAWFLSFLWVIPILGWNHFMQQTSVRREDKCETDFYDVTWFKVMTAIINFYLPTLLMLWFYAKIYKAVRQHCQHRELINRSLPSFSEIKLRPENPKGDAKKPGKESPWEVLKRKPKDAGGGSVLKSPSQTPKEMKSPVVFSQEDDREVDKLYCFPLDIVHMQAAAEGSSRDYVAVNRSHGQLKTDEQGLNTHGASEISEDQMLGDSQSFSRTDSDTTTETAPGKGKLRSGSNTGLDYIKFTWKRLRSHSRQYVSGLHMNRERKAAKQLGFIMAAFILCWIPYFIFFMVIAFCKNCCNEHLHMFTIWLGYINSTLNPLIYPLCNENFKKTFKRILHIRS

[6] = test system: Epidermal growth factor receptor (Homo sapiens), P00533 [UNDEFINED MUTATION]
[7] = biological target: Receptor-type tyrosine-protein kinase FLT3 (Homo sapiens) (UniProt P36888)
[8] = biological target: Ephrin type-A receptor 6 (Homo sapiens) (UniProt Q9UF33)
Sequence of Ephrin type-A receptor 6 (Homo sapiens) (Q9UF33 whole entry): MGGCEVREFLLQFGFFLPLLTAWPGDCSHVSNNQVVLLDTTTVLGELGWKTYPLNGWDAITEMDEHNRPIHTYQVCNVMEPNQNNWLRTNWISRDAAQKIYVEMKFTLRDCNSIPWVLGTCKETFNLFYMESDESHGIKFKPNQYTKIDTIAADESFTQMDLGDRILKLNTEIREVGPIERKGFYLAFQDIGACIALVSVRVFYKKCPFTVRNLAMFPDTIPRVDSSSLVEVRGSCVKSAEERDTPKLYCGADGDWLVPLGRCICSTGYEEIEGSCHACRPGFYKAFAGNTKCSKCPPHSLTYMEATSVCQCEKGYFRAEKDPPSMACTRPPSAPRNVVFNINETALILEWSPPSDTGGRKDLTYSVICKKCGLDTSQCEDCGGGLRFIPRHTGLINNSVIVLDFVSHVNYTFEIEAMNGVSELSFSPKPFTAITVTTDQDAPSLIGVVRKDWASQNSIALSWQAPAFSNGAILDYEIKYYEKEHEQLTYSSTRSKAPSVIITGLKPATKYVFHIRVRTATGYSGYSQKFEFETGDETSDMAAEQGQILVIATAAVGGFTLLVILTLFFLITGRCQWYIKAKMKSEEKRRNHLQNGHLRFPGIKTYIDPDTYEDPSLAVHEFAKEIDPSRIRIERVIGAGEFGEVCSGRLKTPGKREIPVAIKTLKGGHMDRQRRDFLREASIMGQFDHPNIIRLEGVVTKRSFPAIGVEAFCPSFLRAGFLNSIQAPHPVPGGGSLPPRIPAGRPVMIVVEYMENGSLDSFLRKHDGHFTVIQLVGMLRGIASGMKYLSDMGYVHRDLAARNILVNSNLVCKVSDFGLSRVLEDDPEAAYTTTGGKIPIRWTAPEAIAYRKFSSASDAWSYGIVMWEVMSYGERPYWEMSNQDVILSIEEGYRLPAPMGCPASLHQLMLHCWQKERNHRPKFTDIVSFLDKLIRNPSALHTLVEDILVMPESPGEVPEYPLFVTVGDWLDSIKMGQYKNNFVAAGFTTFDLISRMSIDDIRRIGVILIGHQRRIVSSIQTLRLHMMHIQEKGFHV

[9] = biological target: Protein kinase C delta type (Homo sapiens) (UniProt Q05655)
Sequence of Protein kinase C delta type (Homo sapiens) (Q05655 whole entry, looked up): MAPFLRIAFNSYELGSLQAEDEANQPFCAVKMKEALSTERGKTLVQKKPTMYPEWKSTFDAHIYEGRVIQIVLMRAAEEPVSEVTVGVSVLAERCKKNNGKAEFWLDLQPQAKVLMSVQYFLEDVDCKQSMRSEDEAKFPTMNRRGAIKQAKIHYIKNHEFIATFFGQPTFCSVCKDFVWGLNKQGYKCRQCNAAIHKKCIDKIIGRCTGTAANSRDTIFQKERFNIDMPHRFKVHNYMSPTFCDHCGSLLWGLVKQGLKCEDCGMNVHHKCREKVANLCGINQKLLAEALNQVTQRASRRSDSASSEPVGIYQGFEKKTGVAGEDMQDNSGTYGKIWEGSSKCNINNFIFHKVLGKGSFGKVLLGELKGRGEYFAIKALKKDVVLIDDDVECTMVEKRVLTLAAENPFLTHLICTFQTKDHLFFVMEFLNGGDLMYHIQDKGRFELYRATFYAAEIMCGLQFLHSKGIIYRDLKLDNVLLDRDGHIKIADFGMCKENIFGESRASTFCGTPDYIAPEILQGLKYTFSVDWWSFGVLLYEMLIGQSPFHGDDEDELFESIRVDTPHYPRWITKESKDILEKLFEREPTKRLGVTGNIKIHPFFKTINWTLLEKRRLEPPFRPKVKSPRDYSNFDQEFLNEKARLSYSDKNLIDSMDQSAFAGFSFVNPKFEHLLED

[10] = biological target: Sigma intracellular receptor 2 (Homo sapiens, UniProt Q5BJF2); settings: Compound concentration 10.0 uM
Sequence of Sigma intracellular receptor 2 (Q5BJF2 whole entry): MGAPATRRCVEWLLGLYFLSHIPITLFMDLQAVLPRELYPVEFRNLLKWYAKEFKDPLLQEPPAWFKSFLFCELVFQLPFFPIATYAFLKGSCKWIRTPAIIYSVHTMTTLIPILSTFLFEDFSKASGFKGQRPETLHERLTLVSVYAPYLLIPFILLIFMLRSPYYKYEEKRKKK

[11] = biological target: T2, Myotonin-protein kinase (Homo sapiens) (UniProt Q09013)
T2 sequence (whole entry): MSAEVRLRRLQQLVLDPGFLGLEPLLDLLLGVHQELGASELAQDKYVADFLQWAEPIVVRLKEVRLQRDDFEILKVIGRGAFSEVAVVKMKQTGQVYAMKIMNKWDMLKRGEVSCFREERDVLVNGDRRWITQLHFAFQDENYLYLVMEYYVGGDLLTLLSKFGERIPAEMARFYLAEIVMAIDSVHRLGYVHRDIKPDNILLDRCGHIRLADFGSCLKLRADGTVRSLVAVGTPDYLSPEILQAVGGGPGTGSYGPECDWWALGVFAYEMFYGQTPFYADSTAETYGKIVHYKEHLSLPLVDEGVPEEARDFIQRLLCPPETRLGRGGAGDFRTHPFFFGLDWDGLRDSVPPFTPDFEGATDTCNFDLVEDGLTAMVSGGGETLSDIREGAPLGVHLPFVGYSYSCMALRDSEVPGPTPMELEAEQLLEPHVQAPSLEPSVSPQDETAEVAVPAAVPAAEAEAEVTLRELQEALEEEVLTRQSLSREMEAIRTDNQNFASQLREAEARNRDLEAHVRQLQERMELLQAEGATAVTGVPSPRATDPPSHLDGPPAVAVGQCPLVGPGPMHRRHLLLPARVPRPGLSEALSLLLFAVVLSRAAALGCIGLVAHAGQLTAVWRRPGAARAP

[12] = biological target: T3, 5-hydroxytryptamine receptor 2C (Homo sapiens) (UniProt P28335); settings: Compound concentration 10.0 uM
T3 sequence (whole entry): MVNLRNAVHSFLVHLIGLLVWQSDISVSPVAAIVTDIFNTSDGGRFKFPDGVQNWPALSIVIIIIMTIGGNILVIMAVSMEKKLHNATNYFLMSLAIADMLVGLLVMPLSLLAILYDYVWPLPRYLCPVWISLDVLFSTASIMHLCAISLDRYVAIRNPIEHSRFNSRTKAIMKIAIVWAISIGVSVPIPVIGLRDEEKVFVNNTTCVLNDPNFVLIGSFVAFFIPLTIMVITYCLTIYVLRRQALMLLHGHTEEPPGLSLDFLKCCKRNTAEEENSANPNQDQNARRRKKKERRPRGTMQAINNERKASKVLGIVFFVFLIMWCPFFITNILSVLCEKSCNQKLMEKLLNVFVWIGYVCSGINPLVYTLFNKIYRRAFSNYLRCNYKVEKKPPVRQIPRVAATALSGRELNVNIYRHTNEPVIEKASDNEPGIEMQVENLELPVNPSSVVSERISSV

[13] = biological target: T4, Serine/threonine-protein kinase TAO3 (Homo sapiens) (UniProt Q9H2K8)
T4 sequence (whole entry): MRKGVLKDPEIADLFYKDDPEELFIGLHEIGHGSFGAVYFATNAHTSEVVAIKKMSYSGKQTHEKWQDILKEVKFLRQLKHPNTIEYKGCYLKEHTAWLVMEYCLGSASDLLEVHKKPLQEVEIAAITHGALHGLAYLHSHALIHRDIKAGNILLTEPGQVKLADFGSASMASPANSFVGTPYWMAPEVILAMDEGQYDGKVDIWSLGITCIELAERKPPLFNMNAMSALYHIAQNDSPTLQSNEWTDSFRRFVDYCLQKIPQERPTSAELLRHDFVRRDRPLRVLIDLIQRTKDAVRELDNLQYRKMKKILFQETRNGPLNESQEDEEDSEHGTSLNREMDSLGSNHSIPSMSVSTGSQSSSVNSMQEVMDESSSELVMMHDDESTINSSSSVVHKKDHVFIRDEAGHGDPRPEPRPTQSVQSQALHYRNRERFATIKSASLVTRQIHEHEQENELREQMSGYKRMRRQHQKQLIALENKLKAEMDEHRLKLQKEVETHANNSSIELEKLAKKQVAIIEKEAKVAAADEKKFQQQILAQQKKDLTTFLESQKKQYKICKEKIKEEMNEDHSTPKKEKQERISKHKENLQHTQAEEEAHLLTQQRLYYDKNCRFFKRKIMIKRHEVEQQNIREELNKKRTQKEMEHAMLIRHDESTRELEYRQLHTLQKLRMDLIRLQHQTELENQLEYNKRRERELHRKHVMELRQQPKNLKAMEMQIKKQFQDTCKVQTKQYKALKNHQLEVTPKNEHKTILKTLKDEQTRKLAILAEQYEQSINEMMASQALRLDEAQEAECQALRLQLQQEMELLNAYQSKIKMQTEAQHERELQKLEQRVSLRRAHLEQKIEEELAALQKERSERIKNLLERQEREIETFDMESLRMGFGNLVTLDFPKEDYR

[14] = biological target: Serine/threonine-protein kinase MRCK gamma (Homo sapiens) (UniProt Q6DT37)
Sequence of Serine/threonine-protein kinase MRCK gamma (Homo sapiens) (Q6DT37 whole entry): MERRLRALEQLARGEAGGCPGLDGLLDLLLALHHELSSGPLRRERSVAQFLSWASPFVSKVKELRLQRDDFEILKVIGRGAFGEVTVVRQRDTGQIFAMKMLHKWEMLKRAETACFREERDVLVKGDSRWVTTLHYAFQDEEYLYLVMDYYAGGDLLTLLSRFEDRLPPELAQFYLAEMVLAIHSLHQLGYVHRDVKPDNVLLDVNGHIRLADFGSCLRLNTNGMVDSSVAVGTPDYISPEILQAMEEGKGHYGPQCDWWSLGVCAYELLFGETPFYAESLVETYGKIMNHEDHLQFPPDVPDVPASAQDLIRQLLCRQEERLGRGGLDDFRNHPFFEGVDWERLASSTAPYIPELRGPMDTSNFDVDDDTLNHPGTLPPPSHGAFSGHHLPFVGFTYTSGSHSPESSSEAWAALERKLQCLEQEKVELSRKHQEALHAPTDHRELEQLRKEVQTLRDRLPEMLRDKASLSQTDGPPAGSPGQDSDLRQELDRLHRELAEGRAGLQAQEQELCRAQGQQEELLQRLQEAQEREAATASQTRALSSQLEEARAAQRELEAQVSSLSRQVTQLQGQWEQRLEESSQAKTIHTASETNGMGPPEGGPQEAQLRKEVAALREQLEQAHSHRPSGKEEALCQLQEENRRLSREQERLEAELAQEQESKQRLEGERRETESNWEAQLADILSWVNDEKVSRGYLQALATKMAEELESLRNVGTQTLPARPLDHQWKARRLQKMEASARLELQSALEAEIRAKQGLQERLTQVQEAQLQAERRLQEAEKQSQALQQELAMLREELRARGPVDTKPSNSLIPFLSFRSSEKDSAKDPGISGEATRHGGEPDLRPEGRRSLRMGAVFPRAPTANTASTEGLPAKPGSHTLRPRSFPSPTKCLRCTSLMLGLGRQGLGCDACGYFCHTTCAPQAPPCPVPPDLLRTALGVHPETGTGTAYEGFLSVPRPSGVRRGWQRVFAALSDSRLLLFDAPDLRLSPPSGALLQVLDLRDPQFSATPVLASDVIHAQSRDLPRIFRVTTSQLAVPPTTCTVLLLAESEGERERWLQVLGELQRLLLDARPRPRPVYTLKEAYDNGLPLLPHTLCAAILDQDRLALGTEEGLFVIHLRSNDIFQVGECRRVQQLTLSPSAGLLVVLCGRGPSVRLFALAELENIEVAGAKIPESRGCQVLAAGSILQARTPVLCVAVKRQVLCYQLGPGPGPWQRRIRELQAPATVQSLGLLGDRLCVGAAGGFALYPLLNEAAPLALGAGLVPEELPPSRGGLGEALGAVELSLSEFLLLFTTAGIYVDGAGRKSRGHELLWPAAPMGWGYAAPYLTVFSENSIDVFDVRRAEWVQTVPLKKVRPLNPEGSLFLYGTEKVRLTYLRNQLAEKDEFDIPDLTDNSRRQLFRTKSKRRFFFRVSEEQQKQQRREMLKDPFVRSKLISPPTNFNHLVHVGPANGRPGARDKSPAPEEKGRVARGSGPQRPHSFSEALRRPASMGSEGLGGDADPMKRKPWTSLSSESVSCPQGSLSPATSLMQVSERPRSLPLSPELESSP

[15] = Compound concentration 100.0 nM
[16] = Compound concentration 1000.0 nM

Sequence of Cyclin-dependent kinase-like 3 (Homo sapiens) (Q8IVW4 whole entry, looked up): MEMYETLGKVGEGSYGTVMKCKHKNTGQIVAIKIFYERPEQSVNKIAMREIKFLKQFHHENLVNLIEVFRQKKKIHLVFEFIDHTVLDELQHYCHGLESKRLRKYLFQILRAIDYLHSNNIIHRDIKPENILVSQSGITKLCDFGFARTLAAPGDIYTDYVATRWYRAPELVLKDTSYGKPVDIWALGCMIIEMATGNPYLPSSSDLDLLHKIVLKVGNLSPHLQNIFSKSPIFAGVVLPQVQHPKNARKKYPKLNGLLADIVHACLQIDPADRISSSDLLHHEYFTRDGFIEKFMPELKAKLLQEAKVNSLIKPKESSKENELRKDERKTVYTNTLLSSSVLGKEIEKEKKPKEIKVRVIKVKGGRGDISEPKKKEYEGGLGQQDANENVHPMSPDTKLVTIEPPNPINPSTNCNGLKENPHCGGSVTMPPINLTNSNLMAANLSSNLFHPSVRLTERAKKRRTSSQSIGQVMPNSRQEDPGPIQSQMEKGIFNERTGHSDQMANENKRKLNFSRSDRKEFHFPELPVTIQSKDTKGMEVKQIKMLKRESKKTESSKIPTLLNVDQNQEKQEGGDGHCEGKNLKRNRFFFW
Sequence of Serine/threonine-protein kinase 38 (Homo sapiens) (Q15208 2-465 limits assumed): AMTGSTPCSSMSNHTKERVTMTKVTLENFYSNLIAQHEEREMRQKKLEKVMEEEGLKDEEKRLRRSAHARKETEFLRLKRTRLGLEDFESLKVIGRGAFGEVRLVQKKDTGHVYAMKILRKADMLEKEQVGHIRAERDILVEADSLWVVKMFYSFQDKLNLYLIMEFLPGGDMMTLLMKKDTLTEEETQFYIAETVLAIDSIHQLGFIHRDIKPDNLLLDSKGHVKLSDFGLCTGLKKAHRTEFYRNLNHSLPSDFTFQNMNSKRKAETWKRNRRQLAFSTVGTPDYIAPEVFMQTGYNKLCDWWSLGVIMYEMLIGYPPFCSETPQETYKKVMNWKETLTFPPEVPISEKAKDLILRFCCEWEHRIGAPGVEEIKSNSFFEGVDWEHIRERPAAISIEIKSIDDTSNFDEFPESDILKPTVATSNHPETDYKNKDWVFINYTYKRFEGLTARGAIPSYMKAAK

SMILES: C[C@@H]1CN(c2cc(-c3n[nH]c4ccc(OC5(C)CC5)cc34)ncn2)C[C@H](C)O1 [MLi-2]
- residual activity [1, 15]: 100%
- residual activity [2, 15]: 87%
- residual activity [3, 15]: 75%
- residual activity [4, 15]: 100%
- inhibition [5]: -6.46%
- residual activity [6, 15]: 51%
- residual activity [7, 15]: 87%
- residual activity [8, 15]: 90%
- residual activity [9, 15]: 100%
- inhibition [10]: 50.4%
- residual activity [11, 15]: 85%
- inhibition [12]: 7.65%
- residual activity [13, 15]: 69%
- residual activity [14, 15]: 89%

SMILES: C[C@@H]1CN(c2cc(-c3nn(C)c4ccc(OC5(C)CC5)cc34)ncn2)C[C@H](C)O1 [MLi-2-NC]
- residual activity [1, 16]: 58%
- residual activity [2, 16]: 57%
- residual activity [3, 16]: 88%
- residual activity [4, 16]: 100%
- inhibition [5]: 11.9%
- residual activity [6, 16]: 100%
- residual activity [7, 16]: 77%
- residual activity [8, 16]: 100%
- residual activity [9, 16]: 100%
- inhibition [10]: 90.4%
- residual activity [11, 16]: 100%
- inhibition [12]: 18.7%
- residual activity [13, 16]: 35%
- residual activity [14, 16]: 100%
